Measurements published in US12702715B2, “Targeted RNA degradation allows precision repurposing of protein-targeted small molecule medicines to RNA” (University of Florida Research Foundation, Incorporated, priority 2020, dated 2026).
Entries after “also recorded” stand apart in the source; their conditions may differ.

Legend:
[1] = test system: Alport mice (Col4a3−/−); assay: Alport mice studies; assay type: in vivo, mouse
Description: Alport Mice Studies. Alport mice (Col4a3^−/−) and wild type (WT) mice (Col4a3^+/+) were obtained from the breeding of heterozygous […]. Urine was collected 1 day before the treatment, considered as Day 1. The treatment started at Day 2, at around 4 weeks of age. Alport mice were treated with vehicle or 2 as described for NOD/SCID mice in the “In Vivo Studies to Assess Metastasis of Breast Cancer to the Lung” section. Urine was collected every other day for analysis of albumin or creatine levels. After 6 weeks of treatment, the mice were euthanized on Day 43. One kidney was frozen in −80° C. for Western blot and RT-qPCR analyses. The other kidney was fixed in formalin for paraffin-embedding sectioning and further staining.
Evaluation of Kidney Function. The concentration of urine albumin was determined by using a Mouse Albumin ELISA Kit (Bethyl Laboratories Inc, E99-134) per the manufacturer's protocol. Urine creatinine level was measured by using a Urinary Creatinine Assay Kit (Fisher Scientific, 50-673-569) per the manufacturer's protocol.
Kidney Tissue Histology. Silver staining, PAS staining, and PPARα staining were performed by Histology Core at Scripps Research Florida. The anti-PPARα (Abcam, ab215270) was used at 1:1000 dilution. FISH imaging of miR-21 and pre-miR-21 were completed as described in “Lung Tissue Histology”.

[2] = test system: base pair mutant RNA (control RNA); assay: Fluorescent binding affinity measurement, base pair mutant (control RNA); conditions: up to 40 μM of the mutant RNA
Description: Fluorescent Binding Affinity Measurements. Binding assays were completed as previously described^5. Briefly, the RNA of interest was folded as described in the “Solution-based Dye Displacement Assay” section, including the addition of BSA. Then, 1 was added to the RNA solution to a final concentration of 0.5 μM. The solution was serial diluted with 1× AB2 containing 0.5 μM of 1. The solutions were incubated at room temperature in the dark for 30 min. The solutions were then transferred to a black 384-well plate. Fluorescence intensity was measured using a Tecan plate reader (Gain: 100, Integration time: 40 μs) with excitation wavelength of and emission wavelength of 355 nm and 535 nm, respectively. The change in fluorescence was normalized to samples lacking RNA. Binding affinity was calculated by using Equation 2, as previously described^5. I=I0+0.5Δε{([FL]0+[RNA]0+Kd)−(([FL]0+[RNA]0+Kd)^2−4[FL]0[RNA]0)^0.5} (2) where I and I0 are the measured fluorescence intensity of compound with or without RNA, respectively, Δε is the difference between the fluorescence intensity with infinite concentration of RNA or without RNA, [FL]0 and [RNA]0 are the concentrations of small molecule and RNA, respectively, and Kd is the dissociation constant.

[3] = test system: pre-miR-21 mutant; assay: In vitro Dicer processing of pre-miR-21 mutant; assay type: biochemical
Description: In vitro Dicer Processing. The pre-miR-21 WT RNA or pre-miR-21 base pair mutant were 5′-end labeled with T4 polynucleotide kinase and [γ-^32P] ATP as described previously^7. The RNA was folded in 1× Reaction Buffer (Genlantis) by heating at 55° C. for 5 min and cooling slowly to room temperature on the benchtop. The mixture was then supplemented with 2.5 mM MgCl2 and 1 mM ATP. The Dicer processing reaction was performed as described previously^6. The cleavage products were resolved on a 15% polyacrylamide denaturing gel and imaged using a Molecular Dynamics Typhoon phosphorimager and quantified with QuantityOne software from Bio-Rad.

[4] = test system: 3×2 RNA internal loop library (3×2 ILL); assay: AbsorbArray 2DCS selection with Inforna fitness analysis; assay type: binding, human
Description: Construction of AbsorbArray Small Molecule Microarrays. Microarrays were constructed as previously reported^4. Briefly, a 1% agarose solution was poured onto a glass slide and dried on the benchtop. A 200 nL aliquot of 68 hit compounds (10 mM in DMSO) was pinned onto the array from a 384-well plate using Biomek NXP Laboratory Automation Workstation. Slides were then dried overnight to obtain a thin, invisible agarose layer. Slides were washed three times with 1×PBST^5 and then three times with nanopure water. Slides were dried completely in the air before RNA selection, completed by Two-Dimensional Combinatorial Screening (2DCS).
RNA Selection and Screening by 2DCS. The 3×2 RNA ILL was 5′-end ^32P-labeled as previously described^7 and 2DCS selections were completed as previously described 4. All oligonucleotides were folded as described in the “Solution-based Dye Displacement Assay” section. Small molecule microarrays were pre-equilibrated by 3 mL 1× AB2 for 5 min. After removing the pre-equilibration buffer, 5′-end labeled folded 3×2 RNA ILL (~50,000 cpm) was added in 3 mL 1× AB2 containing 1 mM MgCl2 in the presence of competitor oligonucleotides (100 μM each). The oligonucleotide solution was evenly distributed across the microarray surface with a custom-cut piece of Parafilnm. After incubating for 30 min at room temperature, the Parafilm was removed, and the slide was washed gently by submersion in 1× AB2 for 30 s. This washing step was repeated three additional times, and the array was dried on the benchtop for 1 h. […] To harvest and collect the bound RNAs from the ILL, 1 μL of nanopure water was added to each spot. After 30 s, the water drop was absorbed into agarose gel, hydrating it such that it could be excised with a toothpick. The RNAs were eluted from the agarose by simple incubation with water, and then treated with RNase-free DNase I. A unique barcode for each small molecule was installed by reverse transcription (RT). Barcoded RNAs were amplified by PCR, purified, and identified by next-generation sequencing (NGS) using an Ion Proton deep sequencer using PI chips (60-80 million reads) as previously described^2.

Compound: CCOC(=O)C1=C(Nc2ccccc2)S/C(=C\c2ccc(OCCOCCOCCOCCNC(=O)NCCN3CCN(c4ccc5[nH]c(-c6c(N)c7c(F)cccc7[nH]c6=O)nc5c4)CC3)c(O)c2)C1=O [Compound 2, Ribotac-Dovitinib]
- body weight of Alport mice ([1]; 56 mg/kg q.o.d.): gained more weight than vehicle-treated mice
- urine albumin normalized to urine creatinine ([1]; 56 mg/kg, q.o.d., 42 days): stabilized; also recorded: decreased urine albumin concentration
- PPARα expression in kidneys ([1]; Alport mice): enhanced; also recorded: derepressed
- tubule injury / tubulointerstitial pathology ([1]; PAS staining): significantly reduced; also recorded: prevented tubule injury
- pre-miR-21 levels in kidneys ([1]; both Alport and WT mice): reduced; also recorded: decreased
- mature miR-21 levels in kidneys ([1]; both WT and Alport mice, RT-qPCR): decreased miR-21 levels; also recorded: reduced
- glomerulosclerosis ([1]; silver methenamine staining): prevents glomerulosclerosis and tubular atrophy; also recorded: significantly reduced

Compound: CN1CCN(c2ccc3nc(-c4c(N)c5c(F)cccc5[nH]c4=O)[nH]c3c2)CC1 [Compound 1, Dovitinib, reference compound]
- binding to control RNA / base pair mutant [2]: No saturable binding
- inhibition of Dicer processing of mutant pre-miR-21 lacking the 1 binding site [3]: had no effect; also recorded: unable to inhibit
- number of binding RNA motifs ([4]; Zobs>8): 256
- Fitness score of A bulge (5'GAC/3'C_G) in the Dicer processing site of pre-miR-21 ([4]; normalized to most significant motif = 100): 85
